Experiments:
hKCNQ2/3 = hKCNQ2/3 (Homo sapiens, UniProt O43525+O43526); test: Fluorescence assay using a voltage sensitive dye (BMG); type: cell-based; conditions: agonistic activity at 10 μM, CHO-K1 cells expressing KCNQ2/3; read-out: BMG AG %@10 μm
Method: 11. Biological Data 12. Fluorescence Assay Using a Voltage Sensitive Dye
Human CHO-K1 cells expressing KCNQ2/3 channels are cultivated adherently at 37° C., 5% CO2 and 95% humidity in cell culture bottles (e.g. 80 cm^2 TC flasks, Nunc) with MEM Alpha Medium (1×, liquid, Invitrogen, #22571), 10% fetal calf serum (FCS) (Invitrogen, #10270-106, heat-inactivated) and the necessary selection antibiotics.
Before being sown out for the measurements, the cells are washed with a 1×DPBS buffer without Ca^2+/Mg^2+ (e.g. Invitrogen, #14190-094) and detached from the bottom of the culture vessel by means of Accutase (PAA Laboratories, #L11-007) (incubation with Accutase for 15 min at 37° C.). The cell count then present is determined using a CASY™ cell counter (TCC model, Schärfe System) in order subsequently to apply 20,000 cells/well/100 μl of the described nutrient medium to 96-well measuring plates of the Corning™ CellBIND™ type (Flat Clear Bottom Black Polystyrene Microplates, #3340). Incubation is then carried out for one hour at room temperature, without gassing or adjusting the humidity, followed by incubation for 24 hours at 37° C., 5% CO2 and 95% humidity.
The voltage-sensitive fluorescent dye from the Membrane Potential Assay Kit (Red™ Bulk format part R8123 for FLIPR, Molecular Devices™) is prepared by dissolving the contents of a vessel Membrane Potential Assay Kit Red Component A in 200 ml of extracellular buffer (ES buffer, 120 mM NaCl, 1 mM KCl, 10 mM HEPES, 2 mM CaCl2, 2 mM MgCl2, 10 mM glucose; pH 7.4). After removal of the nutrient medium, the cells are washed with 200 μl of ES buffer, then covered with a layer of 100 μl of the dye solution prepared above and incubated for 45 min at room temperature with the exclusion of light.
The fluorescence measurements are carried out with a BMG Labtech FLUOstar™ or BMG Labtech POLARstar™ instrument (525 nm excitation, 560 nm emission, Bottom Read mode). After incubation of the dye, […] of the test substances in the desired concentrations, or 50 μl of ES buffer for control purposes, are introduced into separate cavities of the measuring plate and incubated for 30 min at room temperature while being shielded from light. The fluorescence intensity of the dye is then measured for 5 min and the fluorescence value F1 of each well is thus determined at a given, constant time. 15 μl of a […] KCl solution ([…]) are then added to each well. The change in fluorescence is subsequently measured until all the relevant measured values have been obtained (mainly 5-30 min). At a given time after KCl application, a fluorescence value F2 is determined, in this case at the time of the fluorescence peak.
For calculation, the fluorescence intensity F2 is compared with the fluorescence intensity F1, and the agonistic activity of the target compound on the potassium channel is determined therefrom. F2 and F1 are calculated as follows:
[formula] In order to determine whether a substance has an agonistic effect,
[formula] for example, can be compared with
[formula] determined by adding to the reaction batch only the buffer solution instead of the substance to be tested, determining the value F1K of the fluorescence intensity, adding the potassium ions as described above and measuring a value F2K of the fluorescence intensity. Then F2K and F1K are calculated as follows: […]
A substance has an agonistic activity on the potassium channel when
[formula] is greater than
[formula] Independently of the comparison of
[formula] it is also possible to conclude that a target compound has agonistic activity if an increase in
[formula] is to be observed as the dosage of the target compound increases. Calculations of EC50 and IC50 values are carried out with the aid of “Prism 4” software (GraphPad Software™). The following compounds were tested by way of example: […]

[1] = test system: mononeuropathic pain (mechanical allodynia); test: Chung model: mononeuropathic pain after spinal nerve ligation (mechanical allodynia); type: in vivo, Sprague-Dawley rats; conditions: Rattus norvegicus, iv; i.v. administration
Method: Chung Model: Mononeuropathic Pain after Spinal Nerve Ligation
Animals: Male Sprague-Dawley rats (140-160 g) from a commercial breeder (Janvier, Genest St. Isle, France) were kept under a 12:12 h light-dark rhythm. The animals received food and tap water ad libitum. A period of one week was observed between delivery of the animals and the operation. After the operation, the animals were tested several times over a period of 4-5 weeks, a washing-out time of at least one week being observed. Description of the model: Under pentobarbital narcosis (Narcoren®, 60 mg/kg i.p., Merial GmbH, Hallbergmoos, Germany), the left L5, L6 spinal nerves were exposed by removing a section of the paravertebral muscle and a section of the left spinous process of the L5 lumbar vertebral body. […] The pull-back threshold was measured on the ipsi- and/or contra-lateral rear paw by means of an electronic from Frey Filamentes (Somedic A B, Malmö, Sweden). […] The data were determined as % maximum possible effect (% MPE) from the preliminary tests on the individual animals (=0 MPE) and the test values of an independent sham control group (=100% MPE). […] The data were analyzed by variance analysis with repeated measurements and a post hoc analysis according to Bonferroni. […]

[2] = test system: neuropathic pain (cold allodynia); test: Bennett model: neuropathic pain (chronic constriction injury, cold allodynia); type: in vivo, mouse or rat; conditions: i.v. administration, dose 10 mg/kg
Method: Bennett Model: Neuropathic Pain in the Mouse and in the Rat The study of activity in neuropathic pain was carried out in the Bennett model (chronic constriction injury; Bennett and Xie, 1988, Pain 33: 87-107). Sprague-Dawley rats weighing 140-160 g are provided, under Narcoren narcosis, with four loose ligations of the right nervus ischiaticus. NMRI mice weighing 16-18 g are provided, under Ketavet-Rompun narcosis, with three loose ligations of the right nervus ischiaticus. The animals develop hypersensitivity of the paw innervated by the damaged nerve, and after a one-week recovery phase, the hypersensitivity is quantified over a period of about four weeks by means of a 4° C. cold metal plate (cold allodynia). The animals are observed on the plate for a period of 2 min and the number of reactions of pulling away the damaged paw is measured. […] The size of the group is n=10, the significance of an anti-allodynic action (*=p<0.05) is determined by means of a variance analysis with repeated measurement and a post hoc analysis according to Bonferroni.

O=C(CCC(=O)N1CCn2cccc2C1c1ccccc1)NCc1cccc(C(F)(F)F)c1 (stereo not drawn) [Example 2, 4-oxo-4-(1-phenyl-3,4-dihydro-1H-pyrrolo[1,2-a]pyrazin-2-yl)-N-(3-trifluoromethyl-benzyl)-butyramide]
activation at 10 µM (hKCNQ2/3): 84%
ED50 [1]: 2.8 mg/kg
% MPE in the Bennett model [2]: 40 % MPE

From patent US8017772B2, “Substituted tetrahydropyrrolopyrazine compounds and the use thereof in the treatment and/or inhibition of pain” (Gruenenthal GmbH, priority 2006, dated 2011)
